In US20230117034A1, “PYRAZOLOTRIAZINES” (Bayer Aktiengesellschaft, priority 2019, published 2023):

Legend:
[1] = test system: BRCA1 mRNA expression in MDA-MB-231 cells; test: qRT-PCR assay: BRCA1 mRNA expression in MDA-MB-231; type: cell-based, human; details: Homo sapiens, MDA-MB-231, Inhibition of BRCA1 mRNA expression in MDA-MB-231 cells; median; read-out: RTqPCR-MDA-MB-231, IC50, BRCA1 (median)
Method in brief: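 Read-out is RT-qPCR with expression normalised to the GAPDH housekeeping gene. Before RNA isolation, plated cells (200,000 per well, 24 h attachment) received test substances continuously over 24 h, and 600 ng of RNA served as cDNA template.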

[2] = test system: MDA-MB-231, human breast cancer cells; test: Proliferation assay MDA-MB-231 (crystal violet, 4 days); type: cell-based; details: Homo sapiens, MDA-MB-231, 96 h, MDA-MB-231 cells, median, read-out: Prolif-MDA MB-231, IC50-[mol/l] (median)
Method in brief: (§1)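 Plated 4,000 cells/well, 10% FCS; 24 h later treated 0.01-10 µmol/L cpd (DMSO 0.1%), 4 d. Fix glutaraldehyde, stain 0.1% crystal violet pH 3.0, elute acetic acid, A595. Normalized to t0 plate/untreated; 4-param IC50.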

[3] = target: T1, CDK12 (nuclear staining in CAL-120 cells) (Homo sapiens, UniProt Q9NYV4); test: CDK12 nuclear protein level: immunofluorescence/high content analysis (CAL-120); type: cell-based; details: for DC50: CAL-120 cells, 24 h, immunofluorescence, 50% reduction of nuclear CDK12 staining intensity, median, read-out: CDK12 degradation IF, DC50- [mol/l] (median); for (IC50 CDK12 high ATP) to (Degradation DC50 CDK12) ratio: ratio of IC50 CDK12 high ATP kinase assay to DC50 CDK12 degradation (IF, CAL-120)
T1 construct: endogenous in cells; host or cells: CAL-120 human breast cancer cells (DSMZ ACC 459)
Method in brief: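 CAL-120 cells were treated with compound for 24 h at 37 °C, fixed with PFA and immunostained for CDK12. Nuclear CDK12 intensity was quantified by automated image analysis and normalized to DMSO and control. DC50 is the concentration giving 50% reduction of nuclear staining.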

[4] = test system: CAL-120, human breast adenocarcinoma cells; test: Proliferation assay CAL-120 (crystal violet, 4 days); type: cell-based; details: Homo sapiens, CAL-120, 96 h, CAL-120 cells, median, read-out: Prolif-CAL-120, IC50-[mol/l] (median)
Method in brief: as §1

[5] = target: T2, CYCLIN K (nuclear staining in CAL-120 cells) (Homo sapiens, UniProt O75909); test: CYCLIN K nuclear protein level: immunofluorescence high content analysis (CAL-120); type: cell-based; details: 24 h, 50% reduction of nuclear CCNK staining intensity, median, read-out: CYCLIN K degradation IF, DC50-[mol/l] (median)
T2 construct: endogenous in cells; host or cells: CAL-120 human breast cancer cells (DSMZ ACC 459)
Method in brief: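 CAL-120 breast cancer cells treated in dose-response for 24 h at 37 °C, PFA-fixed and immunostained for cyclin K with Hoechst counterstain. Confocal imaging quantified nuclear intensity; DC50 is the concentration giving 50% reduction of nuclear CCNK staining, normalized to DMSO and control.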

T2 sequence (O75909 whole entry): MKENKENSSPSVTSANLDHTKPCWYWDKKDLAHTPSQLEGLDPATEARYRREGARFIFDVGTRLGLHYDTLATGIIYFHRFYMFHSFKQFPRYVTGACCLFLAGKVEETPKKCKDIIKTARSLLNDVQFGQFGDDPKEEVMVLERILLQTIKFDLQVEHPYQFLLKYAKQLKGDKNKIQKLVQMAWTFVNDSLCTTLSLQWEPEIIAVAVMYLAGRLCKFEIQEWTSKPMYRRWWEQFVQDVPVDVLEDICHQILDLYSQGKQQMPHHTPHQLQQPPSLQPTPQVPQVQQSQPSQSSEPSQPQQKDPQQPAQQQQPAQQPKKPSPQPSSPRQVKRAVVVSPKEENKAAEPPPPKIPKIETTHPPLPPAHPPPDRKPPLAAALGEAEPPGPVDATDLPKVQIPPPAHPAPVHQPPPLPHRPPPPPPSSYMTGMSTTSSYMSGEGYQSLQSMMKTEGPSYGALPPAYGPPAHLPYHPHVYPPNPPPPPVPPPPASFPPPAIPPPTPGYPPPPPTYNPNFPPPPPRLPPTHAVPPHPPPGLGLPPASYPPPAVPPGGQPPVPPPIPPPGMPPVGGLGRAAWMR
T2 sequence (Q9NYV4 whole entry partner): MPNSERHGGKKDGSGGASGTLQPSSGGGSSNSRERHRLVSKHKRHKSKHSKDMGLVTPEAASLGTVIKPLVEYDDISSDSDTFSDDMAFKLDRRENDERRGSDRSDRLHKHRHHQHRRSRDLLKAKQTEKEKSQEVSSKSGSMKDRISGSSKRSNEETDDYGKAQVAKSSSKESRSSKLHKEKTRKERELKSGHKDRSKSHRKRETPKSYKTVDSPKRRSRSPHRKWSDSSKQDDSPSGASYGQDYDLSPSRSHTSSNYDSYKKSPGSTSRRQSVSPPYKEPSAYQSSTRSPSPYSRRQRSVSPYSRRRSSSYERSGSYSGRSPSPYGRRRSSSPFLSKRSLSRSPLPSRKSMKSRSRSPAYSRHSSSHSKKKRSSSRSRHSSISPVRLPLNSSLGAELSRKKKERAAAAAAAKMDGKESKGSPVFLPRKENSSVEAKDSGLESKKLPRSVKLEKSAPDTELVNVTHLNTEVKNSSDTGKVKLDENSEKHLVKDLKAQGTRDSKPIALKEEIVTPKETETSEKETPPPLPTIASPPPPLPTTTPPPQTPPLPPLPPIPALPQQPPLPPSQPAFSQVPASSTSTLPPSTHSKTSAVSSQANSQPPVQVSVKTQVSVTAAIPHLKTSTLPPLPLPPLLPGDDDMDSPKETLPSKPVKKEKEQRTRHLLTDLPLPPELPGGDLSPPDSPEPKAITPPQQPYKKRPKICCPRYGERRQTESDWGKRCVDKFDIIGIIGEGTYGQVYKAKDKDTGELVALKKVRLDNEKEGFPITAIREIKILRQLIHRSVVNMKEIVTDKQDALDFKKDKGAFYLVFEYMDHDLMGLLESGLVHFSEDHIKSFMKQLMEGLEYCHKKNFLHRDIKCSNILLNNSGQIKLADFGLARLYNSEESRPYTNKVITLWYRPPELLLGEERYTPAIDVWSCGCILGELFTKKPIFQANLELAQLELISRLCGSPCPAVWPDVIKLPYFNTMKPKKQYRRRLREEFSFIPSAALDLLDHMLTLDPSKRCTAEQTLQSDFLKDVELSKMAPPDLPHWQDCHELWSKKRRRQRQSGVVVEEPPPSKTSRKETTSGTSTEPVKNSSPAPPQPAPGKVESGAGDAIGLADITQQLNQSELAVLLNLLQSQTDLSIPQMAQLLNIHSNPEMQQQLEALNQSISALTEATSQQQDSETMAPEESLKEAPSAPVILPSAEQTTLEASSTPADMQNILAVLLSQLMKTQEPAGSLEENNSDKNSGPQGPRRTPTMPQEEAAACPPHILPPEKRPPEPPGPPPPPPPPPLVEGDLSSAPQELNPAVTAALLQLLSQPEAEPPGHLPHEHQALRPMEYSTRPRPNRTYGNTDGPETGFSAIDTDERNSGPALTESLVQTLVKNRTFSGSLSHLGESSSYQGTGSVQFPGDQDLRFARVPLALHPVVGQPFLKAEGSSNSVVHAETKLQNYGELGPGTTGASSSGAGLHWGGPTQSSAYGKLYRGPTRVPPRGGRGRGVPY
T1 sequence (Q9NYV4 whole entry): as the sequence (Q9NYV4 whole entry partner) above
T1 sequence (O75909 whole entry partner): as the sequence (O75909 whole entry) above

Compound: CCNc1nc(NCc2ncc(-c3ccccc3)[nH]2)n2ncc(C(C)C)c2n1 [Example 34, N^2-ethyl-N^4-[(5-phenyl-1H-imidazol-2-yl)methyl]-8-(propan-2-yl)pyrazolo[1,5-a][1,3,5]triazine-2,4-diamine]
- IC50 [1]: 10 nM
- IC50 [2]: 48.6 nM
- DC50 [3]: 12.7 nM
- (IC50 CDK12 high ATP) to (Degradation DC50 CDK12) ratio [3]: >449

Compound: COc1cccc(-c2nnc(CNc3nc(N4CCOCC4)nc4c(Br)cnn34)[nH]2)c1 [Example 50, 8-bromo-N-{[5-(3-methoxyphenyl)-4H-1,2,4-triazol-3-yl]methyl}-2-(morpholin-4-yl)pyrazolo[1,5-a][1,3,5]triazin-4-amine]
- IC50 [1]: 18.2 nM
- IC50 [4]: 29.5 nM
- DC50 [3]: 12.5 nM
- (IC50 CDK12 high ATP) to (Degradation DC50 CDK12) ratio [3]: 224
- DC50 [5]: 4.22 nM

Compound: Fc1cccc(-c2nnc(CNc3nc(N4CCOCC4)nc4c(Br)cnn34)[nH]2)c1 [Example 44, 8-bromo-N-{[5-(3-fluorophenyl)-4H-1,2,4-triazol-3-yl]methyl}-2-(morpholin-4-yl)pyrazolo[1,5-a][1,3,5]triazin-4-amine]
- IC50 [1]: 2.95 nM
- IC50 [4]: 1.46 nM
- DC50 [3]: 1.71 nM
- (IC50 CDK12 high ATP) to (Degradation DC50 CDK12) ratio [3]: 871
- DC50 [5]: 2.58 nM

Compound: Clc1cc2nc(CNc3nc(N4CCOCC4)nc4c(-c5ccnnc5)cnn34)[nH]c2cc1Cl.O=C(O)C(F)(F)F [Example 440, trifluoroacetic acid N-[(5,6-dichloro-1H-benzimidazol-2-yl)methyl]-2-(morpholin-4-yl)-8-(pyridazin-4-yl)pyrazolo[1,5-a][1,3,5]triazin-4-amine]
- IC50 [1]: 2.7 nM
- IC50 [2]: 21.4 nM
- IC50 [4]: 7.39 nM
- DC50 [3]: 6.67 nM
- (IC50 CDK12 high ATP) to (Degradation DC50 CDK12) ratio [3]: >2996

Compound: Cc1cccc(-c2nnc(CNc3nc(N4CCOCC4)nc4c(Br)cnn34)[nH]2)c1 [Example 40, 8-bromo-N-{[5-(3-methylphenyl)-4H-1,2,4-triazol-3-yl]methyl}-2-(morpholin-4-yl)pyrazolo[1,5-a][1,3,5]triazin-4-amine]
- IC50 [1]: 14.6 nM
- IC50 [4]: 23.1 nM
- DC50 [3]: 4.58 nM
- (IC50 CDK12 high ATP) to (Degradation DC50 CDK12) ratio [3]: 532
- DC50 [5]: 0.611 nM

Compound: N#Cc1cnn2c(NCc3nc4ccccc4[nH]3)nc(N3CCOCC3)nc12 [Example 43, 4-{[(1H-benzimidazol-2-yl)methyl]amino}-2-(morpholin-4-yl)pyrazolo[1,5-a][1,3,5]triazine-8-carbonitrile]
- IC50 [1]: 69.9 nM
- IC50 [4]: 131 nM
- DC50 [3]: 9.58 nM
- (IC50 CDK12 high ATP) to (Degradation DC50 CDK12) ratio [3]: >1754
- DC50 [5]: 5.35 nM

Compound: FC(F)n1cc(-c2cnn3c(NCc4nc5ccccc5[nH]4)nc(N4CCOCC4)nc23)cn1 [Example 421, N-[(1H-benzimidazol-2-yl)methyl]-8-[1-(difluoromethyl)-1H-pyrazol-4-yl]-2-(morpholin-4-yl)pyrazolo[1,5-a][1,3,5]triazin-4-amine]
- IC50 [1]: 74.6 nM
- IC50 [2]: 87.5 nM
- IC50 [4]: 38.3 nM
- DC50 [3]: 21.6 nM
- (IC50 CDK12 high ATP) to (Degradation DC50 CDK12) ratio [3]: 397

Compound: FC(F)(F)c1cccc(-c2nnc(CNc3nc(N4CCOCC4)nc4c(Br)cnn34)[nH]2)c1 [Example 52, 8-bromo-2-(morpholin-4-yl)-N-({5-[3-(trifluoromethyl)phenyl]-4H-1,2,4-triazol-3-yl}methyl)pyrazolo[1,5-a][1,3,5]triazin-4-amine]
- IC50 [1]: 26 nM
- IC50 [4]: 23.3 nM
- DC50 [3]: 20.5 nM
- (IC50 CDK12 high ATP) to (Degradation DC50 CDK12) ratio [3]: 80
- DC50 [5]: 2.83 nM

Compound: Cc1cnn2c(NCc3nc4c(F)c(F)ccc4[nH]3)nc(N3CCN(C)CC3)nc12 [Example 394, N-[(4,5-difluoro-1H-benzimidazol-2-yl)methyl]-8-methyl-2-(4-methylpiperazin-1-yl)pyrazolo[1,5-a][1,3,5]triazin-4-amine]
- IC50 [1]: 11.4 nM
- IC50 [2]: 19.8 nM
- IC50 [4]: 4.32 nM
- DC50 [3]: 5.65 nM
- (IC50 CDK12 high ATP) to (Degradation DC50 CDK12) ratio [3]: >3303

Compound: OC[C@H]1CCCCN1c1nc(NCc2nc3ccccc3[nH]2)n2ncc(Br)c2n1 [Example 60, [(2R)-1-(4-{[(1H-benzimidazol-2-yl)methyl]amino}-8-bromopyrazolo[1,5-a][1,3,5]triazin-2-yl)piperidin-2-yl]methanol]
- IC50 [1]: 45.3 nM
- IC50 [4]: 25.7 nM
- DC50 [3]: 9.25 nM
- (IC50 CDK12 high ATP) to (Degradation DC50 CDK12) ratio [3]: 202
- DC50 [5]: 3.05 nM

Compound: FC(F)n1cc(-c2cnn3c(NCc4nc5cc(Cl)c(Cl)cc5[nH]4)nc(N4CCOCC4)nc23)cn1 [Example 423, N-[(5,6-dichloro-1H-benzimidazol-2-yl)methyl]-8-[1-(difluoromethyl)-1H-pyrazol-4-yl]-2-(morpholin-4-yl)pyrazolo[1,5-a][1,3,5]triazin-4-amine]
- IC50 [1]: 6.2 nM
- IC50 [2]: 18.2 nM
- IC50 [4]: 12.3 nM
- DC50 [3]: 17.8 nM
- (IC50 CDK12 high ATP) to (Degradation DC50 CDK12) ratio [3]: >720

Compound: Brc1cnn2c(NCc3nnc(-c4ccccc4)[nH]3)nc(N3CCCCC3)nc12 [Example 49, 8-bromo-N-[(5-phenyl-4H-1,2,4-triazol-3-yl)methyl]-2-(piperidin-1-yl)pyrazolo[1,5-a][1,3,5]triazin-4-amine]
- IC50 [1]: 69.2 nM
- IC50 [4]: 44 nM
- DC50 [3]: 41.7 nM
- (IC50 CDK12 high ATP) to (Degradation DC50 CDK12) ratio [3]: 147
- DC50 [5]: 5.34 nM

Compound: CC1(C)CN(c2nc(NCc3nc4ccccc4[nH]3)n3ncc(Br)c3n2)CCO1 [Example 58, N-[(1H-benzimidazol-2-yl)methyl]-8-bromo-2-(2,2-dimethylmorpholin-4-yl)pyrazolo[1,5-a][1,3,5]triazin-4-amine]
- IC50 [1]: 49 nM
- IC50 [4]: 56.3 nM
- DC50 [3]: 26.1 nM
- (IC50 CDK12 high ATP) to (Degradation DC50 CDK12) ratio [3]: 246
- DC50 [5]: 1.66 nM

Compound: Cc1cnn2c(NCc3nc4c(F)c(F)ccc4[nH]3)nc(N3CC4CCC(C3)N4)nc12 [Example 400, 2-(3,8-diazabicyclo[3.2.1]octan-3-yl)-N-[(4,5-difluoro-1H-benzimidazol-2-yl)methyl]-8-methylpyrazolo[1,5-a][1,3,5]triazin-4-amine]
- IC50 [1]: 14 nM
- IC50 [2]: 20.3 nM
- IC50 [4]: 5.23 nM
- DC50 [3]: 6.15 nM
- (IC50 CDK12 high ATP) to (Degradation DC50 CDK12) ratio [3]: >2712

Compound: CC(C)c1cnn2c(NCc3nnc(-c4ccccc4)[nH]3)nc(N(C)CC(C)(C)O)nc12 [Example 39, 2-methyl-1-{methyl[4-{[(5-phenyl-4H-1,2,4-triazol-3-yl)methyl]amino}-8-(propan-2-yl)pyrazolo[1,5-a][1,3,5]triazin-2-yl]amino}propan-2-ol]
- IC50 [1]: 92.3 nM
- DC50 [3]: 41.4 nM
- (IC50 CDK12 high ATP) to (Degradation DC50 CDK12) ratio [3]: 113
- DC50 [5]: 8.13 nM

Compound: CC(C)c1cnn2c(NCc3nnc(-c4ccccc4)[nH]3)nc(N3CCOCC3)nc12 [Example 33, 2-(morpholin-4-yl)-N-[(5-phenyl-4H-1,2,4-triazol-3-yl)methyl]-8-(propan-2-yl)pyrazolo[1,5-a][1,3,5]triazin-4-amine]
- IC50 [1]: 23.7 nM
- IC50 [2]: 290 nM
- DC50 [3]: 67.8 nM
- (IC50 CDK12 high ATP) to (Degradation DC50 CDK12) ratio [3]: 77

Compound: COc1ccccc1-c1nnc(CNc2nc(N3CCN(C)CC3)nc3c(C4CC4(F)F)cnn23)[nH]1 (stereo not drawn) [Example 430, 8-(2,2-difluorocyclopropyl)-N-{[5-(2-methoxyphenyl)-4H-1,2,4-triazol-3-yl]methyl}-2-(4-methylpiperazin-1-yl)pyrazolo[1,5-a][1,3,5]triazin-4-amine]
- IC50 [1]: 10 nM
- IC50 [2]: 81.5 nM
- IC50 [4]: 38.6 nM
- DC50 [3]: 25.3 nM
- (IC50 CDK12 high ATP) to (Degradation DC50 CDK12) ratio [3]: >789

Compound: Cc1cnn2c(NCc3nc4ccccc4[nH]3)nc(N3CCN(C)CC3)nc12 [Example 396, N-[(1H-benzimidazol-2-yl)methyl]-8-methyl-2-(4-methylpiperazin-1-yl)pyrazolo[1,5-a][1,3,5]triazin-4-amine]
- IC50 [2]: 157 nM
- IC50 [4]: 55 nM
- DC50 [3]: 19.4 nM
- (IC50 CDK12 high ATP) to (Degradation DC50 CDK12) ratio [3]: >1031

Compound: CN1CCN(c2nc(NCc3nc4c(F)c(F)ccc4[nH]3)n3ncc(-c4nccs4)c3n2)CC1 [Example 415, N-[(4,5-difluoro-1H-benzimidazol-2-yl)methyl]-2-(4-methylpiperazin-1-yl)-8-(1,3-thiazol-2-yl)pyrazolo[1,5-a][1,3,5]triazin-4-amine]
- IC50 [2]: 584 nM
- IC50 [4]: 268 nM
- DC50 [3]: 105 nM
- (IC50 CDK12 high ATP) to (Degradation DC50 CDK12) ratio [3]: >191
